These results are taken from patent US3996359A, “Novel stereoisomeric component A of stereoisomeric mixtures of 2'-unsymmetrical 16,17-methylenedioxy steroid 21-acylates, compositions thereof, and method of treating therewith” (AB Bofors, priority 1972, dated 1976).

The data set has as its system rats subjected to adrenalectomy (granuloma around implanted cotton wads). In words: granulom test (cotton-pellet test) on rats subjected to adrenalectomy: granuloma growth, thymus weight, body weight increase. It counts as in vivo, rat (Sprague-Dawley). Particulars: for Dose required to obtain 50% inhibition of Granuloma growth: Table 3, adrenalectomized young male Sprague-Dawley rats, topical in implanted cotton wads, day 8; for Dose required to obtain 25% inhibition of Body weight Increase / Dose required to obtain 50% inhibition of Thymus weight: 11520 min.

Structures are written as SMILES. A value given as a limit tells only on which side of the number the result lay.

As to `CCCC1OC2CC3C4CCC5=CC(=O)C=CC5(C)C4(F)C(O)CC3(C)C2(C(=O)COC(=O)c2cc3ccccc3o2)O1` (mixture of isomers) [20 A+B], the “Dose required to obtain 50% inhibition of Granuloma growth” value is listed as < 3 γ/animal. Under “rat, in vivo”, the “Dose required to obtain 25% inhibition of Body weight Increase” value was 20 γ/animal and the “Dose required to obtain 50% inhibition of Thymus weight” value is 25 γ/animal.

Consider `CCCCC(=O)OCC(=O)[C@@]12OC(C)O[C@@H]1C[C@H]1[C@@H]3CCC4=CC(=O)C=C[C@]4(C)[C@@]3(F)[C@@H](O)C[C@@]12C` (single isomer, unassigned) [18 A], for which the “Dose required to obtain 50% inhibition of Granuloma growth” value is given as < 3 γ/animal. For the same molecule, for the setting “rat, in vivo”, the ED25 body weight increase inhibition came to 33 µg/animal, the ED50 thymus weight inhibition stood at 70 µg/animal, the “Therapeutic ratio body weight/granuloma” value was more than 11.0 and the Therapeutic ratio thymus/granuloma is recorded as more than 23.3. Further, for the setting “rat, in vivo”, the “Dose required to obtain 25% inhibition of Body weight Increase” value is on record as 33 γ/animal and the “Dose required to obtain 50% inhibition of Thymus weight” value is given as 70 γ/animal.

Consider `CCCC1O[C@@H]2C[C@H]3[C@@H]4CCC5=CC(=O)C=C[C@]5(C)[C@@]4(F)[C@@H](O)C[C@]3(C)[C@]2(C(=O)CO)O1` (single isomer, unassigned) [3 A], for which the “Dose required to obtain 50% inhibition of Granuloma growth” value is recorded as 25 γ/animal. Where the note is “rat, in vivo”, the “Dose required to obtain 25% inhibition of Body weight Increase” value is reported as > 30 γ/animal and the “Dose required to obtain 50% inhibition of Thymus weight” value is > 30 γ/animal.
